According to ChEMBL document CHEMBL4402540, “Structure-Activity Relationship Studies of Small Molecule Modulators of the Staphylococcal Accessory Gene Regulator” (J Med Chem, 2020):
Where a SMILES comes first, the peptide text is derived from it. Bridges are numbered along the chain shown (N, C = ends). [ ]: non-standard residue; d: D form. The star is where a group is joined. X2 = O=C(c1ccccc1)c1ccc(OCCCC(=O)*)cc1; X1 = O=C(CCCOc1ccc(Cc2ccccc2)cc1)*; Dap = NC[C@H](N)C(=O)O

Experiments:
[1] = system: Staphylococcus aureus; assay: Antibacterial activity against methicillin-resistant Staphylococcus aureus USA300 infected in CD-1 mouse MRSA sepsis model assessed as survival rate at 30 mg/kg, ip after 144 hrs (reference value: 70%); format: functional
[2] = Inhibition of AgrC-1 Staphylococcus aureus RN10829 incubated for 45 mins by beta-lactamase reporter gene assay
[3] = Inhibition of AgrC-4 in Staphylococcus aureus AH1872 incubated for 24 hrs by fluorescence assay
[4] = Inhibition of AgrC-1 in Staphylococcus aureus AH1677 incubated for 24 hrs by fluorescence assay
[5] = Inhibition of AgrC-2 in Staphylococcus aureus
[6] = Inhibition of AgrC-4 in Staphylococcus aureus
[7] = Inhibition of AgrC-2 in Staphylococcus aureus AH430 incubated for 24 hrs by fluorescence assay
[8] = Inhibition of AgrC-1 in Staphylococcus aureus
[9] = Inhibition of AgrC-3 in Staphylococcus aureus AH1747 incubated for 24 hrs by fluorescence assay
[10] = Inhibition of AgrC-3 in Staphylococcus aureus
[11] = system: Staphylococcus aureus; assay: Antibacterial activity against methicillin-resistant Staphylococcus aureus infected in BALB/c mouse assessed as reduction in skin ulcer formation at 25 ug, id after 4 days relative to control; format: functional; design: scale not given: the % may be the effect or the level left
[12] = system: Staphylococcus aureus; assay: Inhibition of AIP biosynthesis in methicillin-resistant Staphylococcus aureus USA300 incubated for 16 hrs by LC-MS analysis; format: functional, organism-based; details: USA300, 16 h
[13] = system: Staphylococcus aureus; assay: Antibacterial activity against methicillin-resistant Staphylococcus aureus infected in BALB/c mouse assessed as reduction in skin ulcer formation at 5 ug, id after 4 days relative to control; format: functional; design: scale not given: the % may be the effect or the level left
[14] = Activation of AgrC-1 Staphylococcus epidermidis AH3408 incubated for 24 hrs by fluorescence assay
[15] = Inhibition of AgrC-2 in Staphylococcus aureus RN9532 by beta-lactamase reporter gene assay
[16] = Inhibition of AgrC-2 in Staphylococcus aureus RN9372 by beta-lactamase reporter gene assay
[17] = Agonist activity at AgrC-4 in Staphylococcus aureus RN9371 by beta-lactamase reporter gene assay
[18] = target: T1, Chloramphenicol acetyltransferase (Staphylococcus epidermidis) (UniProt D2JCN2); assay: Activation of Chloramphenicol acetyltransferase activity in Staphylococcus epidermidis Tu3298 at 200 nM and measured every 15 sec for 20 mins (reference value: 12.5 U/mg)
T1 sequence (whole entry): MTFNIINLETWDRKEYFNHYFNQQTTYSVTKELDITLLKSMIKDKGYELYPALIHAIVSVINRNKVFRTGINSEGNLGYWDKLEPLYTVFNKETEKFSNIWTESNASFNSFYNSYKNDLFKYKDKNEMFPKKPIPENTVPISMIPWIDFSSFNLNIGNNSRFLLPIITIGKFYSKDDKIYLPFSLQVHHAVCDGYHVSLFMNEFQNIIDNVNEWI

[19] = Agonist activity at AgrC-4 in Staphylococcus aureus RN9371 incubated for 60 to 90 mins in presence of AIP agonist by beta-lactamase reporter gene assay
[20] = Inhibition of AgrC-1 in Staphylococcus aureus RN9222 incubated for 60 to 90 mins in presence of AIP agonist by beta-lactamase reporter gene assay
[21] = target: T2, Receptor-histidine kinase AgrC (Staphylococcus aureus) (UniProt O07911); assay: Activation of AgrC in early exponential phase Staphylococcus aureus SA502A assessed as beta-lactamase activity incubated for 55 mins by spectrophotometric method
T2 sequence (whole entry): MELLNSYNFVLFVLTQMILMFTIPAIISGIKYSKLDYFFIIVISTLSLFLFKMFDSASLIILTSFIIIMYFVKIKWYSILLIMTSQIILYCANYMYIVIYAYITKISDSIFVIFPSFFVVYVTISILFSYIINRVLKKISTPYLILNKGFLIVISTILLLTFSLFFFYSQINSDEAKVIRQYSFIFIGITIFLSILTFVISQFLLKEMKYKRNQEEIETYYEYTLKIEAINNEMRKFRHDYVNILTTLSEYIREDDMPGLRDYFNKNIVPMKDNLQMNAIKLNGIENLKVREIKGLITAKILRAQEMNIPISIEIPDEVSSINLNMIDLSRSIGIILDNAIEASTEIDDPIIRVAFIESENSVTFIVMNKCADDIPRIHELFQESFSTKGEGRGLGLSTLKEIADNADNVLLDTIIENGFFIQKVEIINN

[22] = target: T3, Receptor-histidine kinase AgrC (Staphylococcus aureus, UniProt O07911); assay: Inhibition of AgrC in mid-exponential phase Staphylococcus aureus RN8463 assessed as beta-lactamase activity incubated for 80 mins by spectrophotometric method
T3 sequence (O07911 whole entry): T2 sequence (whole entry)

[23] = system: Staphylococcus aureus; assay: Agonist activity at AgrC-2 in Staphylococcus aureus RN9372 incubated for 60 to 90 mins by beta-lactamase reporter gene assay
[24] = Agonist activity at AgrC-3 in Staphylococcus aureus incubated for 60 to 90 mins in presence of AIP agonist by beta-lactamase reporter gene assay
[25] = target: T3, Receptor-histidine kinase AgrC; assay: Inhibition of AgrC in mid-exponential phase Staphylococcus aureus RN6390B assessed as beta-lactamase activity incubated for 80 mins by spectrophotometric method
[26] = system: Staphylococcus aureus; assay: Agonist activity at AgrC-3 in Staphylococcus aureus incubated for 60 to 90 mins by beta-lactamase reporter gene assay
[27] = Inhibition of AgrC-2 in Staphylococcus aureus RN9372 incubated for 60 to 90 mins in presence of AIP agonist by beta-lactamase reporter gene assay
[28] = Drug degradation in ammonium carbonate solution 0.3 mg after 8 hrs after RP-HPLC analysis; format: physicochemical; details: read-out: Drug degradation
[29] = Drug degradation in ammonium carbonate solution 0.3 mg after 72 hrs after RP-HPLC analysis; format: physicochemical; details: read-out: Drug degradation
[30] = Drug degradation in ammonium carbonate solution 0.3 mg after 24 hrs after RP-HPLC analysis; format: physicochemical; details: read-out: Drug degradation
[31] = system: Staphylococcus aureus; assay: Agonist activity at AgrC-1 in Staphylococcus aureus RN9222 incubated for 60 to 90 mins by beta-lactamase reporter gene assay
[32] = system: Staphylococcus aureus; assay: Agonist activity at AgrC-4 in Staphylococcus aureus RN9371 incubated for 60 to 90 mins by beta-lactamase reporter gene assay
[33] = target: T2, Receptor-histidine kinase AgrC (Staphylococcus aureus); assay: Activation of AgrC in early exponential phase Staphylococcus aureus RN6390B assessed as beta-lactamase activity incubated for 55 mins by spectrophotometric method
[34] = target: T3, Receptor-histidine kinase AgrC; assay: Inhibition of AgrC in mid-exponential phase Staphylococcus aureus SA502A assessed as beta-lactamase activity incubated for 80 mins by spectrophotometric method
[35] = Inhibition of AgrC-1 Staphylococcus aureus RN6390B by agr-blaZ reporter gene assay
[36] = Inhibition of AgrC-2 Staphylococcus aureus SA564 by agr-blaZ reporter gene assay

Compound: CCCCCCc1cc(C(=O)COc2ccc(C(C)C)cc2)c(O)cc1O
- survival at 30 mg/kg [1]: 100%

Compound: CC(=O)N[C@H]1CSC(=O)[C@@H](CC(C)C)NC(=O)[C@@H](CC(C)C)NC(=O)[C@@H](Cc2ccccc2)NC(=O)[C@@H](CC(=O)O)NC1=O
- IC50 [2]: 16.8 nM

Compound: CC(C)C[C@H]1NC(=O)[C@@H](Cc2ccccc2)NC(=O)[C@@H](CC(=O)O)NC(=O)[C@@H](NC(=O)[C@@H](Cc2ccccc2)NC(=O)[C@@H]2CCCN2C(=O)[C@H](N)Cc2ccc(O)cc2)CSC(=O)[C@@H](CC(C)C)NC1=O
- IC50 [2]: 0.31 nM

Compound: CC[C@@H](C)[C@H](NC(C)=O)C(=O)N[C@H](CC(N)=O)C(=O)N[C@@H]1CSC(=O)[C@@H](Cc2ccccc2)NC(=O)[C@@H](CC(C)C)NC(=O)[C@@H](CC(C)C)NC(=O)[C@@H](C)NC1=O
- IC50 [3]: 0.0349 to 0.75 nM
- IC50 [4]: 0.485 to 2.9 nM
- IC50 [5]: 0.4 nM
- IC50 [6]: 0.03 nM
- IC50 [7]: 0.429 to 3.5 nM
- IC50 [8]: 0.5 nM
- IC50 [9]: 0.0506 to 0.35 nM
- IC50 [10]: 0.05 nM

Compound: CCCCC/C=C/C1=C(CO)[C@@H](O)[C@H]2O[C@@]2(C/C=C(\C)C(=O)O)C1=O
- Activity [11]: 100%
- IC50 [12]: 2500 nM
- Activity [13]: 50%

Compound: CC(C)[C@H](NC(=O)[C@H](CO)NC(=O)[C@H](C)N)C(=O)N[C@H]1CSC(=O)[C@H](Cc2ccccc2)NC(=O)[C@H](Cc2ccc(O)cc2)NC(=O)[C@H](C)NC(=O)[C@H](C)NC1=O (H-ASVCAAYF; thioester 4-C)
- EC50 [14]: 10.3 nM

Compound: CC[C@H](C)[C@H](NC(=O)[C@@H](N)CC(=O)O)C(=O)N[C@H]1CSC(=O)[C@H](Cc2ccccc2)NC(=O)[C@H](Cc2ccc(O)cc2)NC(=O)[C@H](C)NC(=O)[C@H](CC(N)=O)NC1=O (H-DICNAYF; thioester 3-C)
- IC50 [15]: 36.6 nM
- IC50 [16]: 419 nM
- IC50 [17]: > 1000 nM

Compound: CC(C)[C@H](NC(=O)[C@H](CO)NC(=O)[C@@H](N)CC(=O)O)C(=O)N[C@H]1CSC(=O)[C@H](Cc2ccccc2)NC(=O)[C@H](Cc2ccc(O)cc2)NC(=O)[C@H](CO)NC(=O)[C@H](C)NC1=O (H-DSVCASYF; thioester 4-C)
- Activity [18]: 53.3 U/mg
- IC50 [15]: 13 nM
- IC50 [16]: > 1000 nM
- IC50 [17]: > 1000 nM

Compound: CC(C)C[C@@H]1NC(=O)[C@H](CO)NC(=O)[C@H](CO)NC(=O)[C@@H](NC(=O)[C@H](C)NC(=O)[C@H](CC(N)=O)NC(=O)[C@@H](NC(=O)CN)C(C)C)CSC(=O)[C@H](Cc2ccccc2)NC1=O (H-GVNACSSLF; thioester 5-C)
- IC50 [19]: 86 nM
- IC50 [20]: 40 nM
- ED50 [21]: 3.6 nM
- IC50 [22]: 3.2 nM
- IC50 [2]: 12 nM
- ED50 [23]: 30 nM
- IC50 [24]: 1 nM
- IC50 [25]: 2.9 nM

Compound: CC[C@H](C)[C@H](N)C(=O)N[C@@H](CC(N)=O)C(=O)N[C@H]1CSC(=O)[C@H](CC(C)C)NC(=O)[C@H](CC(C)C)NC(=O)[C@H](Cc2ccccc2)NC(=O)[C@H](CC(=O)O)NC1=O (H-INCDFLL; thioester 3-C)
- IC50 [19]: 150 nM
- IC50 [4]: 5.05 nM
- IC50 [20]: 70 nM
- ED50 [26]: 26 nM
- IC50 [27]: 6 nM
- degraded at 8 h [28]: 100%

Compound: CC[C@H](C)[C@H](N)C(=O)N[C@@H](CC(N)=O)C(=O)N[C@H]1CNC(=O)[C@H](CC(C)C)NC(=O)[C@H](CC(C)C)NC(=O)[C@H](Cc2ccccc2)NC(=O)[C@H](C)NC1=O (H-IN[Dap]AFLL; lactam 3-C)
- IC50 [3]: 0.192 nM
- IC50 [4]: 1.2 nM
- degraded at 72 h [29]: 40%
- degraded at 24 h [30]: 10%
- IC50 [7]: 2.19 nM
- IC50 [9]: 0.0551 nM

Compound: CC[C@H](C)[C@@H]1NC(=O)[C@H](Cc2ccccc2)NC(=O)[C@H](CC(=O)O)NC(=O)[C@@H](NC(=O)[C@@H](NC(=O)[C@H](CO)NC(=O)[C@@H](N)Cc2ccc(O)cc2)[C@@H](C)O)CSC(=O)[C@H](CCSC)NC1=O (H-YSTCDFIM; thioester 4-C)
- ED50 [31]: 28 nM
- ED50 [32]: 26000 nM
- ED50 [33]: 10.2 nM
- IC50 [34]: 3.4 nM
- IC50 [27]: 25 nM
- IC50 [22]: 3.1 nM
- IC50 [24]: 3 nM

Compound: CC[C@H](C)[C@@H]1NC(=O)[C@H](Cc2ccccc2)NC(=O)[C@H](Cc2ccc(O)cc2)NC(=O)[C@@H](NC(=O)[C@@H](NC(=O)[C@H](CO)NC(=O)[C@@H](N)Cc2ccc(O)cc2)[C@@H](C)O)CSC(=O)[C@H](CCSC)NC1=O (H-YSTCYFIM; thioester 4-C)
- ED50 [31]: 62 nM
- ED50 [32]: 13 nM
- IC50 [27]: 4 nM
- IC50 [24]: 1 nM

Compound: CC[C@H](C)[C@@H]1NC(=O)[C@H](Cc2ccccc2)NC(=O)[C@H](C)NC(=O)[C@@H](NC(=O)[C@@H](NC(=O)[C@H](CO)NC(=O)CCCOc2ccc(Cc3ccccc3)cc2)[C@@H](C)O)CSC(=O)[C@H](CCSC)NC1=O (X1-STCAFIM; thioester 3-C)
- IC50 [35]: 295 nM
- IC50 [36]: 19 nM

Compound: CC[C@H](C)[C@@H]1NC(=O)[C@H](Cc2ccccc2)NC(=O)[C@H](C)NC(=O)[C@@H](NC(=O)[C@@H](NC(=O)[C@H](CO)NC(=O)CCCOc2ccc(C(=O)c3ccccc3)cc2)[C@@H](C)O)CSC(=O)[C@H](CCSC)NC1=O (X2-STCAFIM; thioester 3-C)
- IC50 [35]: 21 nM
- IC50 [36]: 4 nM
